biological target: Acetyl-coenzyme A synthetase, cytoplasmic (Homo sapiens, UniProt Q9NR19); assay: Inhibition of N-terminal 6x-histidine tagged human ACSS2 expressed in insect cells assessed as reduction in pyrophosphate production using CoA and ATP incubated for 30 mins by pyrophosphatase coupled enzymatic assay
Sequence (Q9NR19 whole entry): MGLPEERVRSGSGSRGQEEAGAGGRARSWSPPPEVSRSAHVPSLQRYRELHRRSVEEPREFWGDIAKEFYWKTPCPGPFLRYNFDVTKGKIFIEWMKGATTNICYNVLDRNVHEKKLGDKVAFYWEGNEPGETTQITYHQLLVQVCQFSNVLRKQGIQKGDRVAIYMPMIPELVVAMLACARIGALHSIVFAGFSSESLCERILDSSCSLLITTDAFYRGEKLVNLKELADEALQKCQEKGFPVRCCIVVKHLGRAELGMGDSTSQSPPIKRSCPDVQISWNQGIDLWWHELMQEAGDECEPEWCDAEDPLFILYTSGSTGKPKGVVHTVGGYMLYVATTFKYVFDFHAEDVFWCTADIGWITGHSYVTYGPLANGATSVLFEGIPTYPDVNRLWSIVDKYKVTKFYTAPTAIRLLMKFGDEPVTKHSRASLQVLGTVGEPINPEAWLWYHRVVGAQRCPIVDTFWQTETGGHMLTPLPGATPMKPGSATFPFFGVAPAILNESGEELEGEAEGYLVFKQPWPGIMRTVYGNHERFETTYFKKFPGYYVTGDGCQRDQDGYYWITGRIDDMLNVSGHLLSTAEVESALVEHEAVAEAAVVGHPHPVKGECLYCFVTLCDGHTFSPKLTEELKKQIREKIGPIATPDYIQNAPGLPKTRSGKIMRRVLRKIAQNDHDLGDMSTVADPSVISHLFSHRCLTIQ

Structure (SMILES)	IC50 [nM]
CCn1c(C(O)(c2ccccc2)c2ccccc2)nc2ccc(C(OC(C)=O)C(F)(F)COC(C)=O)cc21 (centres undefined)	50 to 249
CCOc1ccc2c(c1)nc(C(O)(c1ccccc1)c1ccccc1)n2C	50 to 249
C[C@@H](O)CNC(=O)c1ccc2nc(C(O)(c3ccccc3)c3ccccc3)n(CCF)c2c1	50 to 249
CCn1c(C(O)(c2ccccc2)c2ccccc2)nc2ccc(C(=O)NC[C@H](C)O)c(F)c21	50 to 249
CCn1c(C(O)(c2ccccc2)c2ccccc2F)nc2ccc(C(=O)NCCO)cc21 (centres undefined)	50 to 249
CCn1c(C(O)(c2ccc(F)cc2F)c2ccc(F)cc2F)nc2ccc(C(=O)NC[C@@H](C)O)cc21	50 to 249
Cn1ccc(NC(=O)c2ccc3nc(C(O)(c4ccccc4F)c4ccccc4F)n(CCO)c3c2)n1	50 to 249
Cn1cc(NC(=O)c2ccc3nc(C(O)(c4ccccc4)c4ccccc4)n(CCO)c3c2)cn1	50 to 249
CCn1c(C(O)(c2ccccc2)c2ccccc2)nc2ccc(C(=O)Nc3ccccc3)cc21	50 to 249
CCn1c(C(O)(c2ccc(F)cc2)c2ncccc2F)nc2ccc(CCCO)cc21 (centres undefined)	50 to 249
Cn1c(C(O)(c2ccccc2F)c2ccccc2F)nc2ccc(C(=O)NCCO)cc21	50 to 249
C=CCC1(c2ccc3nc(C(O)(c4ccccc4)c4ccccc4)n(CC)c3c2)COC1	50 to 249
CCc1cccc(OCc2ccc3nc(C(O)(c4ccccc4)c4ccccc4)n(CC)c3c2)c1	50 to 249
CNC(=O)c1ccc2nc(C(O)(c3ccccc3F)c3ccccc3F)n(C)c2c1	50 to 249
CCn1c(C(O)(c2ccccc2)c2ccccc2)nc2ccc(C(=O)NCC3CCOCC3)cc21	50 to 249
CCn1c(C(O)(c2ccccc2)c2ccccc2)nc2cc(F)c(C(=O)NC)cc21	50 to 249
CCN1CC[C@@H](NC(=O)c2ccc3nc(C(O)(c4ccccc4)c4ccccc4)n(CC)c3c2)C1	50 to 249
CCn1c(C(O)(c2ccccc2F)c2ccccc2F)nc2ccc(C(=O)N[C@@H]3CCC(=O)N(C)C3)cc21	50 to 249
CCn1c(C(O)(c2ccccc2)c2ccccc2)nc2ccc(C(=O)N[C@@H]3CCC[C@@H](O)C3)cc21	50 to 249
CN1C[C@H](NC(=O)c2ccc3nc(C(O)(c4ccccc4)c4ccccc4)n(C)c3c2)CCC1=O	50 to 249
COc1ccc2c(c1)nc(C(O)(c1ccccc1)c1ccccc1)n2C	50 to 249
CCn1c(C(O)(c2ccccc2)c2ccccc2)nc2cc(OCCO)ncc21	50 to 249
CCn1c(C(O)(c2ccccc2)c2ccc(F)cc2F)nc2ccc(C(=O)NC[C@@H](C)O)cc21 (some centres undefined)	50 to 249

Structure (SMILES)	IC50 [nM]
Cn1ccc(NC(=O)c2ccc3nc(C(O)(c4ccccc4)c4ccccc4)n(CCO)c3c2)n1	50 to 249
CN1C[C@H](NC(=O)c2ccc3nc(C(O)(c4ccccc4F)c4ccccc4F)n(C)c3c2)CCC1=O	50 to 249
CCn1c(C(O)(c2ccccc2)c2ccccc2)nc2ccc(C(=O)NC)c(F)c21	50 to 249
CCn1c(C(O)(c2ccccc2)c2ccccc2)nc2ccc(C(=O)Nc3cnn(CCO)c3)cc21	50 to 249
CCn1c(C(O)(c2ccccc2)c2ccccc2)nc2ccc(C(=O)NCC(O)COC)cc21 (centres undefined)	50 to 249
CCn1cc(-c2cc3c(cc2F)nc(C(O)(c2ccccc2)c2ccccc2)n3CC)cn1	50 to 249
CCn1c(C(O)(c2ccccc2)c2ccccc2)nc2ccc(C(=O)NCC3CCNCC3)cc21	50 to 249
CCn1c(C(O)(c2ccccc2F)c2ncccc2F)nc2ccc(CCCO)cc21 (centres undefined)	50 to 249
CCn1c(C(O)(c2ccccc2)c2ccccc2)nc2ccc(C(=O)NC3CCNC3)cc21 (centres undefined)	50 to 249
CCn1c(C(O)(c2ccccc2)c2ccccc2)nc2ccc(C(=O)Nc3ccc(OC)cc3)cc21	50 to 249
CCn1c(C(O)(c2ccccc2)c2ccccc2O)nc2ccc(C(=O)NC[C@@H](C)O)cc21 (some centres undefined)	50 to 249
CN1C[C@@H](NC(=O)c2ccc3nc(C(O)(c4ccccc4)c4ccccc4)n(C)c3c2)CCC1=O	50 to 249
CC(O)Cn1c(C(O)(c2ccccc2)c2ccccc2)nc2ccc(C(=O)NC[C@@H](C)O)cc21 (some centres undefined)	50 to 249
CCn1c(C(O)(c2ccccc2)c2ccccc2)nc2ccc(C(=O)N[C@H]3CCC(=O)N(C)C3)cc21	50 to 249
CCn1c(C(O)(c2ccccc2)c2ccccc2)nc2ccc(C(=O)Nc3cn(C)cn3)cc21	50 to 249
CC(C)Cn1c(C(O)(c2ccccc2)c2ccccc2)nc2ccc(C(=O)NC[C@@H](C)O)cc21	50 to 249
CCn1c(C(O)(c2ccccc2F)c2ccccc2F)nc2ccc(C(=O)NCCO)cc21	50 to 249
CCn1c(C(O)(c2ccccc2)c2ccccc2)nc2ccc(C(=O)NC3(C#N)CC3)cc21	50 to 249
CCn1c(C(O)(c2ccc(F)cc2F)c2ccc(F)cc2F)nc2ccc(C(=O)NC)cc21	50 to 249
Cn1cc(NC(=O)c2ccc3nc(C(O)(c4ccccc4F)c4ccccc4F)n(CCO)c3c2)cn1	50 to 249
CCn1c(C(O)(c2ccccc2F)c2ncccc2C)nc2ccc(CCCO)cc21 (centres undefined)	50 to 249
CCn1c(C(O)(c2ccccc2)c2ccc3cnn(C)c3c2)nc2ccc(C(=O)NC)cc21 (centres undefined)	50 to 249

More lines, now with the values ahead:

IC50 [nM]	Structure (SMILES)
50 to 249	CCn1cc(-c2ccc3nc(C(O)(c4ccccc4)c4ccccc4)n(CC)c3c2)cn1
50 to 249	CCn1c(C(O)(c2ccccc2)c2ccccc2)nc2ccc(C(O)CO)cc21 (centres undefined)
50 to 249	CCn1c(C(O)(c2ccccc2)c2ccccc2)nc2ccc(S(=O)(=O)NC[C@@H](C)O)cc21
50 to 249	CCn1c(C(O)(c2ccccc2)c2ccccc2)nc2ccc(C(=O)NOCCO)cc21
50 to 249	CCn1c(C(O)(c2ccccc2)c2ccccc2)nc2ccc(CC(CO)CO)cc21
50 to 249	CCC(O)CNC(=O)c1ccc2nc(C(O)(c3ccccc3)c3ccccc3)n(CC)c2c1 (centres undefined)
50 to 249	CCn1c(C(O)(c2ccccc2)c2ccccc2)nc2ccc(CNC(=O)NC)cc21
50 to 249	CCn1c(C(O)(c2ccccc2)c2ccccc2)nc2ccc(NC(=O)OC(C)(C)C)cc21
50 to 249	CCn1c(C(O)(c2ccccc2)c2ccccc2)nc2ccc(C(=O)NC[C@@H](O)CO)cc21
50 to 249	CCn1c(C(O)(c2ccccc2)c2ccccc2)nc2ccc(S(=O)(=O)CC)cc21
50 to 249	CCn1c(C(O)(c2ccccc2)c2ccccc2)nc2ccc(C(O)C(F)(F)F)cc21 (centres undefined)
50 to 249	CCONC(=O)c1ccc2nc(C(O)(c3ccccc3)c3ccccc3)n(CC)c2c1
50 to 249	CCn1c(C(O)(c2ccccc2)c2ccccc2)nc2ccc(CNC(C)=O)cc21
50 to 249	CCn1c(C(O)(c2ccccc2)c2ccccc2)nc2ccc(NC(=O)COC)cc21
50 to 249	CCS(=O)(=O)c1ccc2nc(C(O)(c3ccccc3)c3ccccc3)n(C)c2c1
50 to 249	CCn1c(C(O)(c2ccccc2)c2ccccc2)nc2ccc(CCO)cc21
50 to 249	CCn1c(C(O)(c2ccccc2)c2ccccc2)nc2ccc(CNC(=O)CO)cc21
50 to 249	CCn1c(C(O)(c2ccccc2)c2ccccc2)nc2ccc(CCC(=O)NC)cc21
50 to 249	CCn1c(C(O)(c2ccccc2)c2ccccc2)nc2ccc(C(N)=O)cc21
50 to 249	CCn1c(C(O)(c2ccccc2)c2ccccc2)nc2ccc(CC(O)CO)cc21 (centres undefined)
50 to 249	CCn1c(C(O)(c2ccccc2)c2ccccc2)nc2ccc(CNC(=O)COC)cc21
50 to 249	Cn1c(C(O)(c2ccccc2)c2ccccc2)nc2ccc(S(C)(=O)=O)cc21
50 to 249	CCn1c(C(O)(c2ccccc2)c2ccccc2)nc2ccc(C(=O)NC[C@H](O)CO)cc21
50 to 249	CCn1c(C(O)(c2ccccc2)c2ccccc2)nc2ccc(N)cc21
